# According to patent publication US20100317647A1 (priority 2009, published 2010):
# Molecular target: human Cat S (Homo sapiens, UniProt P25774)
# Assay: Cathepsin enzyme inhibition assay (fluorogenic peptide substrate cleavage)
# Format: biochemical
# Conditions: human Cat S 1 nM; substrate Z-Val-Val-Arg-AMC 20 μM; pH 6.5; fluorescence over 20 minutes
# In short: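 Fluorogenic cleavage of Z-Val-Val-Arg-AMC (20 μM) by 1 nM enzyme in 100 mM potassium phosphate pH 6.5, 5 mM EDTA, 5 mM DTT, 0.001% Triton X-100. Reaction started with substrate; fluorescence (ex 360/em 465 nm) followed over 20 minutes. IC50 by standard methods.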
# Chain of human Cat S (P25774 115-331): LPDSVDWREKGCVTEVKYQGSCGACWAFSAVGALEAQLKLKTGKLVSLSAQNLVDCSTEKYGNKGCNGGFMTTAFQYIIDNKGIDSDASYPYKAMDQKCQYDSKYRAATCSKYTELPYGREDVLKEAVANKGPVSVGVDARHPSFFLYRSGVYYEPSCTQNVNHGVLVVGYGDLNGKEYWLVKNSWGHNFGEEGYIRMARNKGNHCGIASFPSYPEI
row,IC50,SMILES
1,0.575 nM,"N#CC1(NC(=O)[C@@H]2C[C@@H](S(=O)(=O)c3ccc(N4CCN(C5CC5)CC4)cc3Cl)C[C@H]2C(=O)N2CCC(F)(F)C2)CC1 [Example 191, (1R,2R,4R)-4-[2-Chloro-4-(4-cyclopropyl-piperazin-1-yl)-benzenesulfonyl]-2-(3,3-difluoro-pyrrolidine-1-carbonyl)-cyclopentanecarboxylic acid (1-cyano-cyclopropyl)-amide]"
2,25.5 nM,"CCN1CCC(C#N)(NC(=O)[C@@H]2C[C@@H](S(=O)(=O)c3ccc(Cl)cc3Cl)C[C@H]2OCc2ccc(Cl)cc2)CC1 (racemic) [Example 240, (1R,2R,4R) and (1S,2S,4S)-2-(4-Chloro-benzyloxy)-4-(2,4-dichloro-benzenesulfonyl)-cyclopentanecarboxylic acid (4-cyano-1-ethyl-piperidin-4-yl)-amide]"
3,0.34 nM,"Cn1nccc1-c1cccc(S(=O)(=O)[C@@H]2C[C@@H](C(=O)NC3(C#N)CC3)[C@H](C(=O)N3CCC(F)(F)C3)C2)c1 [Example 201, (1R,2R,4R)-2-(3,3-Difluoro-pyrrolidine-1-carbonyl)-4-[3-(2-methyl-2H-pyrazol-3-yl)-benzenesulfonyl]-cyclopentanecarboxylic acid (1-cyano-cyclopropyl)-amide]"
4,0.0275 nM,"N#CC1(NC(=O)[C@@H]2C[C@@H](S(=O)(=O)c3ccc(N4CCN(CC(F)(F)F)CC4)cc3C(F)(F)F)C[C@H]2OC2CCCC2)CC1 (racemic) [Example 230, (1R,2R,4R) and (1S,2S,4S)-2-Cyclopentyloxy-4-{4-[4-(2,2,2-trifluoro-ethyl)-piperazin-1-yl]-2-trifluoromethyl-benzenesulfonyl}-cyclopentanecarboxylic acid (1-cyano-cyclopropyl)-amide]"
5,0.38 nM,"N#CC1(NC(=O)[C@@H]2C[C@@H](S(=O)(=O)c3ccc(Cl)cn3)C[C@H]2C(=O)N2CCC(F)(F)C2)CC1 [Example 225, (1R,2R,4R)-4-(5-Chloro-pyridine-2-sulfonyl)-2-(3,3-difluoro-pyrrolidine-1-carbonyl)-cyclopentanecarboxylic acid (1-cyano-cyclopropyl)-amide]"
6,0.14 nM,"Cn1cc(-c2ccc(S(=O)(=O)[C@@H]3C[C@@H](C(=O)NC4(C#N)CC4)[C@H](C(=O)N4CCC(F)(F)C4)C3)c(Cl)c2)cn1 [Example 197, (1R,2R,4R)-4-[2-Chloro-4-(1-methyl-1H-pyrazol-4-yl)-benzenesulfonyl]-2-(3,3-difluoro-pyrrolidine-1-carbonyl)-cyclopentanecarboxylic acid (1-cyano-cyclopropyl)-amide]"
7,0.155 nM,"CC(C)(C)N1CCN(c2ccc(S(=O)(=O)[C@@H]3C[C@@H](C(=O)NC4(C#N)CC4)[C@H](C(=O)N4CCC(F)(F)C4)C3)c(Cl)c2)CC1 [Example 192, (1R,2R,4R)-4-[4-(4-tert-Butyl-piperazin-1-yl)-2-chloro-benzenesulfonyl]-2-(3,3-difluoro-pyrrolidine-1-carbonyl)-cyclopentanecarboxylic acid (1-cyano-cyclopropyl)-amide]"
8,0.16 nM,"Cn1cc(-c2ccc(S(=O)(=O)[C@H]3C[C@@H](OC4CCS(=O)(=O)CC4)[C@H](C(=O)NC4(C#N)CC4)C3)c(C(F)(F)F)c2)cn1 (racemic) [Example 184, (1R,2R,4R) and (1S,2S,4S)-2-[(tetrahydro-1,1-dioxo-2H-thiopyran-4-yl)oxy]-4-[4-(1-methyl-1H-pyrazol-4-yl)-2-trifluoromethyl-benzenesulfonyl]-cyclopentanecarboxylic acid (1-cyano-cyclopropyl)-amide]"

# Second part, the molecule before the results:
row,SMILES,IC50
1,"CO[C@@H]1C[C@H](S(=O)(=O)c2ccc(-c3cnn(C)c3)cc2C(F)(F)F)C[C@H]1C(=O)NC1(C#N)CC1 (racemic) [Example 66, (1R,2R,4R) and (1S,2S,4S)-2-Methoxy-4-[4-(1-methyl-1H-pyrazol-4-yl)-2-trifluoromethyl-benzenesulfonyl]-cyclopentanecarboxylic acid (1-cyano-cyclopropyl)-amide]",0.7 nM
2,"N#CC1(NC(=O)[C@@H]2C[C@@H](S(=O)(=O)c3ccc(N4CC5(COC5)C4)cc3C(F)(F)F)C[C@H]2C(=O)N2CC(F)(F)C2)CC1 [Example 133, (1R,2R,4R)-2-(3,3-Difluoro-azetidine-1-carbonyl)-4-[4-(2-oxa-6-aza-spiro[3.3]hept-6-yl)-2-trifluoromethyl-benzenesulfonyl]-cyclopentanecarboxylic acid (1-cyano-cyclopropyl)-amide]",0.5 nM
3,"CO[C@@H]1C[C@H](S(=O)(=O)c2ccc(-c3ccc(F)cc3)cc2C(F)(F)F)C[C@H]1C(=O)NC1(C#N)CC1 (racemic) [Example 63, (1R,2R,4R) and (1S,2S,4S)-4-(4′-Fluoro-3-trifluoromethyl-biphenyl-4-sulfonyl)-2-methoxy-cyclopentanecarboxylic acid (1-cyano-cyclopropyl)-amide]",1.3 nM
4,"N#CCNC(=O)[C@@H]1C[C@@H](S(=O)(=O)Cc2ccccc2)C[C@H]1C(=O)N1CCOCC1 [Example 38, (1R,2R,4R)-2-(Morpholine-4-carbonyl)-4-phenylmethanesulfonyl-cyclopentanecarboxylic acid cyanomethyl-amide]",533 nM
5,"N#CC1(NC(=O)[C@@H]2C[C@@H](S(=O)(=O)c3ccc(-n4cccn4)cc3Cl)C[C@H]2C(=O)N2CC(F)(F)C2)CC1 [Example 167, (1R,2R,4R)-4-(2-Chloro-4-pyrazol-1-yl-benzenesulfonyl)-2-(3,3-difluoro-azetidine-1-carbonyl)-cyclopentanecarboxylic acid (1-cyano-cyclopropyl)-amide]",1.47 nM
6,"N#CC1(NC(=O)[C@@H]2C[C@@H](S(=O)(=O)c3ccccc3Cl)C[C@H]2OCc2ccc(Cl)cc2C(F)(F)F)CC1 (racemic) [Example 151, (1R,2R,4R) and (1S,2S,4S)-2-(4-Chloro-2-(trifluoromethyl)benzyloxy)-4-(2-chlorophenylsulfonyl)-N-(1-cyanocyclopropyl)cyclopentanecarboxamide]",2.99 nM
7,"CC(C)(C#N)NC(=O)[C@@H]1C[C@@H](S(=O)(=O)c2ccccc2)C[C@H]1C(=O)N1CCOCC1 [Example 34, (1R,2R,4R)-4-Benzenesulfonyl-2-(morpholine-4-carbonyl)-cyclopentanecarboxylic acid (cyano-dimethyl-methyl)-amide]",2.5 nM
8,"CC(=O)N1CCN(c2ccc(S(=O)(=O)[C@@H]3C[C@@H](C(=O)NC4(C#N)CC4)[C@H](C(=O)N4CC(F)(F)C4)C3)c(Cl)c2)CC1 [Example 166, (1R,2R,4R)-4-[4-(4-Acetyl-piperazin-1-yl)-2-chloro-benzenesulfonyl]-2-(3,3-difluoro-azetidine-1-carbonyl)-cyclopentanecarboxylic acid (1-cyano-cyclopropyl)-amide]",0.6 nM
9,"CO[C@@H]1C[C@H](S(=O)(=O)c2ccc(N3CCN(C)CC3)cc2C(F)(F)F)C[C@H]1C(=O)NC1(C#N)CC1 (racemic) [Example 161, (1R,2R,4R) and (1S,2S,4S)-2-Methoxy-4-[4-(4-methyl-piperazin-1-yl)-2-trifluoromethyl-benzenesulfonyl]-cyclopentanecarboxylic acid (1-cyano-cyclopropyl)-amide]",1.5 nM
10,"CC1CCN(C(=O)[C@@H]2C[C@H](S(=O)(=O)c3ccccc3)C[C@H]2C(=O)NC2(C#N)CC2)CC1 [Example 19, (1R,2R,4R)-4-Benzenesulfonyl-2-(4-methyl-piperidine-1-carbonyl)-cyclopentanecarboxylic acid (1-cyano-cyclopropyl)-amide]",0.5 nM
11,"N#CCNC(=O)[C@@H]1C[C@@H](S(=O)(=O)c2ccc(F)cc2F)C[C@H]1C(=O)N1CCOCC1 [Example 6, (1R,2R,4R)-4-(2,4-Difluoro-benzenesulfonyl)-2-(morpholine-4-carbonyl)-cyclopentanecarboxylic acid cyanomethyl-amide]",0.8 nM
12,"N#CC1(NC(=O)[C@H]2CC[C@H](S(=O)(=O)c3ccc(N4CC5(COC5)C4)cc3Cl)C2)CC1 (racemic) [Example 95, (1S,3S) and (1R,3R)-3-[2-chloro-4-(2-oxa-6-aza-spiro[3.3]hept-6-yl)-benzenesulfonyl]-cyclopentanecarboxylic acid (1-cyano-cyclopropyl)-amide]",140 nM
13,"N#CC1(NC(=O)[C@H]2CC[C@H](S(=O)(=O)c3ccc(OCC(F)(F)F)cc3Cl)C2)CC1 (single isomer, unassigned) [Example 98]",160 nM
14,"N#CCNC(=O)[C@@H]1C[C@@H](S(=O)(=O)c2ccccc2Cl)C[C@H]1COc1ccc(Cl)cc1 (single isomer, unassigned) [Example 68]",2.2 nM
15,"COCCOc1ccc(S(=O)(=O)[C@@H]2C[C@@H](C(=O)NC3(C#N)CC3)[C@H](C(=O)N3CC(F)(F)C3)C2)c(Cl)c1 [Example 168, (1R,2R,4R)-4-[2-Chloro-4-(2-methoxy-ethoxy)-benzenesulfonyl]-2-(3,3-difluoro-azetidine-1-carbonyl)-cyclopentanecarboxylic acid (1-cyano-cyclopropyl)-amide]",1.27 nM
16,"N#CC1(NC(=O)[C@H]2CC[C@H](S(=O)(=O)c3ccc(N4CCC(F)(F)C4)cc3Cl)C2)CC1 (racemic) [Example 96, (1S,3S) and (1R,3R)-3-[2-chloro-4-(3,3-difluoro-pyrrolidin-1-yl)-benzenesulfonyl]-cyclopentanecarboxylic acid (1-cyano-cyclopropyl)-amide]",213 nM
17,"Cc1cc(-c2ccc(S(=O)(=O)[C@H]3C[C@@H](OC4CCS(=O)(=O)CC4)[C@H](C(=O)NC4(C#N)CC4)C3)c(C(F)(F)F)c2)ccn1 (racemic) [Example 183, (1R,2R,4R) and (1S,2S,4S)-2-[(tetrahydro-1,1-dioxo-2H-thiopyran-4-yl)oxy]-4-[4-(2-methyl-pyridin-4-yl)-2-trifluoromethyl-benzenesulfonyl]-cyclopentanecarboxylic acid (1-cyano-cyclopropyl)-amide]",0.2 nM
